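At the GI50, growth is halved. The concentration for full growth arrest is given as TGI.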
Legend:
Assay in all cases: DTP human tumour cell line panel, 384-well format
OVCAR-3 ovarian = test system: OVCAR-3 ovarian
OVCAR-8 ovarian = test system: OVCAR-8 ovarian
NCI/ADR-RES ovarian = test system: NCI/ADR-RES ovarian
BT-549 breast = test system: BT-549 breast
A549 NSCLC = test system: A549 NSCLC
MALME-3M melanoma = test system: MALME-3M melanoma
MDA-MB-468 breast = test system: MDA-MB-468 breast
UACC-62 melanoma = test system: UACC-62 melanoma
KM12 colon = test system: KM12 colon
MDA-MB-231 breast = test system: MDA-MB-231 breast
HS 578T breast = test system: HS 578T breast
NCI-H226 lung = test system: NCI-H226 lung
MCF7 breast = test system: MCF7 breast
HOP-62 NSCLC = test system: HOP-62 NSCLC
SW-620 colon = test system: SW-620 colon
786-0 renal = test system: 786-0 renal
UACC-257 melanoma = test system: UACC-257 melanoma
OVCAR-4 ovarian = test system: OVCAR-4 ovarian
COLO 205 colon = test system: COLO 205 colon
M14 melanoma = test system: M14 melanoma
CCRF-CEM leukemia = test system: CCRF-CEM leukemia
SNB-75 CNS = test system: SNB-75 CNS
HCT-15 colon = test system: HCT-15 colon
NCI-H23 lung = test system: NCI-H23 lung
NCI-H460 NSCLC = test system: NCI-H460 NSCLC
SR leukemia = test system: SR leukemia
NCI-H322M lung = test system: NCI-H322M lung
U251 glioblastoma = test system: U251 glioblastoma
SK-MEL-5 melanoma = test system: SK-MEL-5 melanoma
NCI-H522 lung = test system: NCI-H522 lung
SF-268 CNS = test system: SF-268 CNS
HOP-92 NSCLC = test system: HOP-92 NSCLC
SNB-19 CNS = test system: SNB-19 CNS
T-47D breast = test system: T-47D breast
TK-10 renal = test system: TK-10 renal
CAKI-1 renal = test system: CAKI-1 renal
A498 renal = test system: A498 renal
K-562 leukemia = test system: K-562 leukemia
IGROV1 ovarian = test system: IGROV1 ovarian
SN12C renal = test system: SN12C renal
SF-539 CNS = test system: SF-539 CNS
HT29 colon = test system: HT29 colon
HCC-2998 colon = test system: HCC-2998 colon
SF-295 CNS = test system: SF-295 CNS
RPMI-8226 leukemia = test system: RPMI-8226 leukemia
EKVX NSCLC = test system: EKVX NSCLC
HCT-116 colon = test system: HCT-116 colon
LOX IMVI melanoma = test system: LOX IMVI melanoma
UO-31 renal = test system: UO-31 renal
MOLT-4 leukemia = test system: MOLT-4 leukemia
SK-OV-3 ovarian = test system: SK-OV-3 ovarian
PC-3 prostate = test system: PC-3 prostate
HL-60(TB) leukemia = test system: HL-60(TB) leukemia
DU-145 prostate = test system: DU-145 prostate
RXF 393 renal = test system: RXF 393 renal
ACHN renal = test system: ACHN renal

Cn1nccc1Nc1nccc(-c2ccn([C@H](CO)c3ccc(Cl)c(F)c3)c(=O)c2)n1
GI50 (OVCAR-3 ovarian): 18.5 µM | TGI (OVCAR-3 ovarian): 54.3 µM | GI50 (OVCAR-8 ovarian): 3.44 µM | TGI (OVCAR-8 ovarian): 10.7 µM | GI50 (NCI/ADR-RES ovarian): 78.1 µM | TGI (NCI/ADR-RES ovarian): > 100 µM | GI50 (BT-549 breast): 15.1 µM | TGI (BT-549 breast): 34.6 µM | GI50 (A549 NSCLC): 25.3 µM | TGI (A549 NSCLC): > 100 µM | GI50 (MALME-3M melanoma): 0.0289 µM | TGI (MALME-3M melanoma): 0.104 µM | GI50 (MDA-MB-468 breast): 23.7 µM | TGI (MDA-MB-468 breast): 48.5 µM | GI50 (UACC-62 melanoma): 0.0678 µM | TGI (UACC-62 melanoma): 14.8 µM | GI50 (KM12 colon): 18.6 µM | TGI (KM12 colon): > 100 µM | GI50 (MDA-MB-231 breast): 21.3 µM | TGI (MDA-MB-231 breast): > 100 µM | GI50 (HS 578T breast): 18.8 µM | TGI (HS 578T breast): 34.1 µM | GI50 (NCI-H226 lung): 26.4 µM | TGI (NCI-H226 lung): 64.8 µM | GI50 (MCF7 breast): 37.4 µM | TGI (MCF7 breast): > 100 µM | GI50 (HOP-62 NSCLC): 19.5 µM | TGI (HOP-62 NSCLC): 47.2 µM | GI50 (SW-620 colon): 1.65 µM | TGI (SW-620 colon): 14.6 µM | GI50 ([…]-0 renal): 19.9 µM | TGI (786-0 renal): 58.7 µM | GI50 (UACC-257 melanoma): 0.209 µM | TGI (UACC-257 melanoma): > 100 µM | GI50 (OVCAR-4 ovarian): > 100 µM | TGI (OVCAR-4 ovarian): > 100 µM | GI50 (COLO 205 colon): 0.102 µM | TGI (COLO 205 colon): 12.9 µM | GI50 (M14 melanoma): 0.0794 µM | TGI (M14 melanoma): 10.3 µM | GI50 (CCRF-CEM leukemia): 4.29 µM | TGI (CCRF-CEM leukemia): 15 µM | GI50 (SNB-75 CNS): 22.6 µM | TGI (SNB-75 CNS): 45.3 µM | GI50 (HCT-15 colon): 28.6 µM | TGI (HCT-15 colon): > 100 µM | GI50 (NCI-H23 lung): 0.899 µM | TGI (NCI-H23 lung): 24 µM | GI50 (NCI-H460 NSCLC): 20.4 µM | TGI (NCI-H460 NSCLC): 45.1 µM | GI50 (SR leukemia): 47.8 µM | TGI (SR leukemia): 85.2 µM | GI50 (NCI-H322M lung): 15.6 µM | TGI (NCI-H322M lung): > 100 µM | GI50 (U251 glioblastoma): 7.42 µM | TGI (U251 glioblastoma): 20.9 µM | GI50 (SK-MEL-5 melanoma): 0.409 µM | TGI (SK-MEL-5 melanoma): 22.1 µM | GI50 (NCI-H522 lung): 2.66 µM | TGI (NCI-H522 lung): 9.45 µM | GI50 (SF-268 CNS): 38.1 µM | TGI (SF-268 CNS): > 100 µM | GI50 (HOP-92 NSCLC): 14.3 µM | TGI (HOP-92 NSCLC): 28.2 µM | GI50 (SNB-19 CNS): 16.6 µM | TGI (SNB-19 CNS): 52 µM | GI50 (T-47D breast): 11.1 µM | TGI (T-47D breast): 54.5 µM | GI50 (TK-10 renal): 21.2 µM | TGI (TK-10 renal): 51.7 µM | GI50 (CAKI-1 renal): 15.5 µM | TGI (CAKI-1 renal): > 100 µM | GI50 (A498 renal): 18.1 µM | TGI (A498 renal): 33.9 µM | GI50 (K-562 leukemia): 6.93 µM | TGI (K-562 leukemia): 21.7 µM | GI50 (IGROV1 ovarian): 14 µM | TGI (IGROV1 ovarian): 39.5 µM | GI50 (SN12C renal): 1.67 µM | TGI (SN12C renal): 4.67 µM | GI50 (SF-539 CNS): 1.76 µM | TGI (SF-539 CNS): 3.55 µM | GI50 (HT29 colon): 0.443 µM | TGI (HT29 colon): 20.7 µM | GI50 (HCC-2998 colon): 0.565 µM | TGI (HCC-2998 colon): 12.1 µM | GI50 (SF-295 CNS): 54 µM | TGI (SF-295 CNS): > 100 µM | GI50 (RPMI-8226 leukemia): 16.5 µM | TGI (RPMI-8226 leukemia): 31 µM | GI50 (EKVX NSCLC): 76.5 µM | TGI (EKVX NSCLC): > 100 µM | GI50 (HCT-116 colon): 1.78 µM | TGI (HCT-116 colon): 11.8 µM | GI50 (LOX IMVI melanoma): 1.08 µM | TGI (LOX IMVI melanoma): 11.7 µM | GI50 (UO-31 renal): 30 µM | TGI (UO-31 renal): > 100 µM | GI50 (MOLT-4 leukemia): 11.6 µM | TGI (MOLT-4 leukemia): 24 µM | GI50 (SK-OV-3 ovarian): 15.9 µM | TGI (SK-OV-3 ovarian): 33.3 µM | GI50 (PC-3 prostate): 29.8 µM | TGI (PC-3 prostate): 84.3 µM | GI50 (HL-60(TB) leukemia): 0.11 µM | TGI (HL-60(TB) leukemia): 13.1 µM | GI50 (DU-145 prostate): 18.3 µM | TGI (DU-145 prostate): 38.1 µM | GI50 (RXF 393 renal): 21.2 µM | TGI (RXF 393 renal): 49 µM | GI50 (ACHN renal): 45 µM | TGI (ACHN renal): > 100 µM
